Bounds are passed on as bounds.

Broadly, the EC50 is the concentration needed to bring the measured effect to its halfway point.

The subject of one experiment is HCV 1b genotype. The experiment in a line: HCV Replicon assay (HCV-neo replicon cells, wild-type). The following applies: HCV 1b genotype replicon; class symbols. The format is cell-based. The essentials:
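Assay used wild-type HCV genotype 1b replicon cells carrying neo, with luciferase reporter read-outs in some formats.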
As for `CC(=O)N1CCC[C@H]1c1nc2ccc(C#Cc3ccc4[nH]c([C@@H]5CCCN5C(=O)Cc5ccccn5)nc4c3)cc2[nH]1` [Example M54.20, 5-((2-((2S)-1-acetyl-2-pyrrolidinyl)-1H-benzimidazol-6-yl)ethynyl)-2-((2S)-1-(2-pyridinylacetyl)-2-pyrrolidinyl)-1H-benzimidazole], the EC50 was 4.57 to 99 nM.
On to `COC(=O)N[C@@H](C)C(=O)N1[C@@H]2C[C@@H]2C[C@H]1c1nc2cc(Oc3cccc(-c4ccc5[nH]c([C@@H]6C[C@H]7C[C@H]7N6C(=O)[C@H](C)NC(=O)OC)nc5c4)c3)ccc2[nH]1` [Example V2, methyl ((1S)-2-((1R,3S,5R)-3-(5-(3-((2-((1R,3S,5R)-2-(N-(methoxycarbonyl)-L-alanyl)-2-azabicyclo[3.1.0]hex-3-yl)-1H-benzimidazol-5-yl)oxy)phenyl)-1H-benzimidazol-2-yl)-2-azabicyclo[3.1.0]hex-2-yl)-1-methyl-2-oxoethyl) carbamate], for which the concentration for a half-maximal effect (EC50) is under 4.57 nM.
For `COC(=O)N[C@@H](C(=O)N1[C@@H]2C[C@@H]2C[C@H]1c1nc2cc(Oc3cccc(-c4ccc5[nH]c([C@@H]6C[C@H]7C[C@H]7N6C(=O)[C@H](NC(=O)OC)C(C)C)nc5c4)c3)ccc2[nH]1)C(C)C` [Example V3, methyl ((1R)-1-(((1R,3S,5R)-3-(5-(3-(2-((1R,3S,5R)-2-((2R)-2-((methoxycarbonyl)amino)-3-methylbutanoyl)-2-azabicyclo[3.1.0]hex-3-yl)-1H-benzimidazol-5-yl)phenoxy)-1H-benzimidazol-2-yl)-2-azabicyclo[3.1.0]hex-2-yl)carbonyl)-2-methylpropyl) carbamate], the EC50 was 4.57 to 99 nM.

Staying with this experiment, now noted: Hepatitis C virus, HCV 1b genotype replicon; class symbols.
In the case of `CCc1ccccc1C(=O)N1CCC[C@H]1c1nc2cc(C#Cc3ccc4nc([C@@H]5CCCN5C(C)=O)[nH]c4c3)ccc2[nH]1` [Example M54.19, 5-((2-((2S)-1-acetyl-2-pyrrolidinyl)-1H-benzimidazol-6-yl)ethynyl)-2-((2S)-1-(2-ethylbenzoyl)-2-pyrrolidinyl)-1H-benzimidazole], the half-maximal effective concentration (EC50) lay in the range of 100 to 999 nM.
For the molecule `CC(=O)N1CCC[C@H]1c1nc2ccc(C#Cc3ccc4[nH]c([C@@H]5CCCN5C(=O)Cc5cccnc5)nc4c3)cc2[nH]1` [Example M54.21, 5-((2-((2S)-1-acetyl-2-pyrrolidinyl)-1H-benzimidazol-6-yl)ethynyl)-2-((2S)-1-(3-pyridinylacetyl)-2-pyrrolidinyl)-1H-benzimidazole], the EC50 lay within 4.57 to 99 nM.
Consider `CC(=O)N1CCC[C@H]1c1nc2ccc(C#Cc3ccc4[nH]c([C@@H]5CCCN5C(=O)c5cccnc5)nc4c3)cc2[nH]1` [Example M54.22, 5-((2-((2S)-1-acetyl-2-pyrrolidinyl)-1H-benzimidazol-6-yl)ethynyl)-2-((2S)-1-(3-pyridinylcarbonyl)-2-pyrrolidinyl)-1H-benzimidazole], for which the EC50 is 100 to 999 nM.
As for `CC(=O)N1CCC[C@H]1c1nc2ccc(C#Cc3ccc4[nH]c([C@@H]5CCCN5C(=O)Cc5cccs5)nc4c3)cc2[nH]1` [Example M54.23, 5-((2-((2S)-1-acetyl-2-pyrrolidinyl)-1H-benzimidazol-6-yl)ethynyl)-2-((2S)-1-(2-thienylacetyl)-2-pyrrolidinyl)-1H-benzimidazole], the concentration giving a half-maximal response (EC50) fell in the range of 4.57 to 99 nM.
In the case of `CC(=O)N1CCC[C@H]1c1nc2ccc(C#Cc3ccc4[nH]c([C@@H]5CCCN5C(=O)c5cccs5)nc4c3)cc2[nH]1` [Example M54.24, 5-((2-((2S)-1-acetyl-2-pyrrolidinyl)-1H-benzimidazol-6-yl)ethynyl)-2-((2S)-1-(2-thienylcarbonyl)-2-pyrrolidinyl)-1H-benzimidazole], the EC50 lay within 4.57 to 99 nM.
For the molecule `CC(=O)N1CCC[C@H]1c1nc2ccc(C#Cc3ccc4[nH]c([C@@H]5CCCN5C(=O)[C@H]5CCCO5)nc4c3)cc2[nH]1` [Example M54.25, 5-((2-((2S)-1-acetyl-2-pyrrolidinyl)-1H-benzimidazol-6-yl)ethynyl)-2-((2S)-1-((2R)-tetrahydro-2-furanylcarbonyl)-2-pyrrolidinyl)-1H-benzimidazole], the EC50 lay within 100 to 999 nM.
Same read-out and setting: in the case of `CC(=O)N1CCC[C@H]1c1nc2cc(C#Cc3ccc4[nH]c([C@@H]5CCCN5C(=O)OCc5ccccc5)nc4c3)ccc2[nH]1` [Example M54.26, benzyl (2S)-2-(5-((2-((2S)-1-acetyl-2-pyrrolidinyl)-1H-benzimidazol-5-yl)ethynyl)-1H-benzimidazol-2-yl)-1-pyrrolidine-carboxylate] it was 4.57 to 99 nM; in that of `CC(=O)N1CCC[C@H]1c1nc2ccc(C#Cc3ccc4[nH]c([C@@H]5CCCN5C(=O)[C@@H]5CCCN5C)nc4c3)cc2[nH]1` [Example M54.27, 5-((2-((2S)-1-acetyl-2-pyrrolidinyl)-1H-benzimidazol-6-yl)ethynyl)-2-((2S)-1-(1-methyl-L-prolyl)-2-pyrrolidinyl)-1H-benzimidazole], 1000 to 10000 nM; in that of `CC(=O)N1CCC[C@H]1c1nc2cc(C#Cc3ccc4nc([C@@H]5CCCN5C(C)=O)[nH]c4c3)ccc2[nH]1` [Example M54.28, 2-((2S)-1-acetyl-2-pyrrolidinyl)-5-((2-((2S)-1-acetyl-2-pyrrolidinyl)-1H-benzimidazol-6-yl)ethynyl)-1H-benzimidazole], 100 to 999 nM.
Regarding `CCC(=O)N1CCC[C@H]1c1nc2cc(C#Cc3ccc4nc([C@@H]5CCCN5C(C)=O)[nH]c4c3)ccc2[nH]1` [Example M54.29, 5-((2-((2S)-1-acetyl-2-pyrrolidinyl)-1H-benzimidazol-6-yl)ethynyl)-2-((2S)-1-propionyl-2-pyrrolidinyl)-1H-benzimidazole], the EC50 is 100 to 999 nM.
On to `CC(=O)N1CCC[C@H]1c1nc2ccc(C#Cc3ccc4[nH]c([C@@H]5CCCN5C(=O)C5CC5)nc4c3)cc2[nH]1` [Example M54.30, 5-((2-((2S)-1-acetyl-2-pyrrolidinyl)-1H-benzimidazol-6-yl)ethynyl)-2-((2S)-1-(cyclopropyl-carbonyl)-2-pyrrolidinyl)-1H-benzimidazole], for which the half-maximal effective concentration (EC50) fell in the range of 100 to 999 nM.
Still for that read-out and setting: the result for `CC(=O)N1CCC[C@H]1c1nc2ccc(C#Cc3ccc4[nH]c([C@@H]5CCCN5C(=O)C5CCC5)nc4c3)cc2[nH]1` [Example M54.31, 5-((2-((2S)-1-acetyl-2-pyrrolidinyl)-1H-benzimidazol-6-yl)ethynyl)-2-((2S)-1-(cyclobutyl-carbonyl)-2-pyrrolidinyl)-1H-benzimidazole] reads 4.57 to 99 nM; that for `CC(=O)N1CCC[C@H]1c1nc2ccc(C#Cc3ccc4[nH]c([C@@H]5CCCN5C(=O)CC5CC5)nc4c3)cc2[nH]1` [Example M54.32, 5-((2-((2S)-1-acetyl-2-pyrrolidinyl)-1H-benzimidazol-6-yl)ethynyl)-2-((2S)-1-(cyclopropyl-acetyl)-2-pyrrolidinyl)-1H-benzimidazole], 4.57 to 99 nM; that for `CC(=O)N1CCC[C@H]1c1nc2ccc(C#Cc3ccc4[nH]c([C@@H]5CCCN5C(=O)N5CCOCC5)nc4c3)cc2[nH]1` [Example M54.33, 5-((2-((2S)-1-acetyl-2-pyrrolidinyl)-1H-benzimidazol-6-yl)ethynyl)-2-((2S)-1-(4-morpholinyl-carbonyl)-2-pyrrolidinyl)-1H-benzimidazole], 4.57 to 99 nM.
As to `CC(=O)N1CCC[C@H]1c1nc2ccc(C#Cc3ccc4[nH]c([C@@H]5CCCN5C(=O)N5CCN(C)CC5)nc4c3)cc2[nH]1` [Example M55, 5-((2-((2S)-1-acetyl-2-pyrrolidinyl)-1H-benzimidazol-6-yl)ethynyl)-2-((2S)-1-((4-methyl-1-piperazinyl)carbonyl)-2-pyrrolidinyl)-1H-benzimidazole], the 50% effective concentration (EC50) was 100 to 999 nM.
Take `CC(=O)N1CCC[C@H]1c1nc2cc(C#Cc3ccc4[nH]c([C@@H]5CCCN5C(=O)[C@@H](c5ccccc5)N(C)C)nc4c3)ccc2[nH]1` [Example M56, (1R)-2-((2S)-2-(5-((2-((2S)-1-acetyl-2-pyrrolidinyl)-1H-benzimidazol-5-yl)ethynyl)-1H-benzimidazol-2-yl)-1-pyrrolidinyl)-N,N-dimethyl-2-oxo-1-phenyl-ethanamine]: the 50% effective concentration (EC50) was under 4.57 nM.
Same read-out and setting: in the case of `O=C(Cc1ccccc1)N1CCC[C@H]1c1nc2cc(C#CC#Cc3ccc4[nH]c([C@@H]5CCCN5C(=O)Cc5ccccc5)nc4c3)ccc2[nH]1` [Example M57, 5,5′-(1,3-butadiyne-1,4-diyl)bis(2-((2S)-1-(phenylacetyl)-2-pyrrolidinyl)-1H-benzimidazole)] it was under 4.57 nM; in that of `COC(=O)N[C@H](C(=O)N1CCC[C@H]1c1nc2cc(C#CC#Cc3ccc4[nH]c([C@@H]5CCCN5C(=O)[C@@H](NC(=O)OC)C(C)C)nc4c3)ccc2[nH]1)C(C)C` [Example M57.1, Methyl((1S)-1-(((2S)-2-(5-(4-(2-((2S)-1-((2S)-2-((methoxycarbonyl)amino)-3-methylbutanoyl)-2-pyrrolidinyl)-1H-benzimidazol-5-yl)-1,3-butadiyn-1-yl)-1H-benzimidazol-2-yl)-1-pyrrolidinyl)carbonyl)-2-methylpropyl)carbamate], under 4.57 nM; in that of `COC(=O)N[C@H](C(=O)N1[C@@H]2C[C@@H]2C[C@H]1c1nc2cc(C#CC#Cc3ccc4[nH]c([C@@H]5C[C@H]6C[C@H]6N5C(=O)[C@@H](NC(=O)OC)C(C)C)nc4c3)ccc2[nH]1)C(C)C` [Example M57.2, Methyl((1S)-1-(((1R,3S,5R)-3-(5-(4-(2-((1R,3S,5R)-2-((2S)-2-((methoxycarbonyl)amino)-3-methylbutanoyl)-2-azabicyclo[3.1.0]hex-3-yl)-1H-benzimidazol-5-yl)-1,3-butadiyn-1-yl)-1H-benzimidazol-2-yl)-2-azabicyclo[3.1.0]hex-2-yl)carbonyl)-2-methylpropyl)carbamate], under 4.57 nM.
Take `COC(=O)N[C@H](C(=O)N1[C@@H]2C[C@@H]2C[C@H]1c1nc2cc(Oc3cccc(-c4ccc5[nH]c([C@@H]6C[C@H]7C[C@H]7N6C(=O)[C@@H](NC(=O)OC)C(C)C)nc5c4)c3)ccc2[nH]1)C(C)C` [Example V1, Methyl((1S)-1-(((1R,3S,5R)-3-(5-(3-(2-((1R,3S,5R)-2-((2S)-2-((methoxycarbonyl)amino)-3-methylbutanoyl)-2-azabicyclo[3.1.0]hex-3-yl)-1H-benzimidazol-5-yl)phenoxy)-1H-benzimidazol-2-yl)-2-azabicyclo[3.1.0]hex-2-yl)carbonyl)-2-methylpropyl)carbamate]: the concentration giving a half-maximal response (EC50) was under 4.57 nM.

Source of the values: patent US7906655B2, “Hepatitis C virus inhibitors” (Bristol-Myers Squibb Company, priority 2008, dated 2011).
